Where “and” joins values, the source holds several entries; their conditions need not be identical. Equal values may be shown once. Toxic doses and inconclusive results are not listed. No stated cut-off is given here; in the data, active means T/C of 150% or more; inactive means T/C below 125%.
Test system: L1210 leukemia ip in BDF1 mice, survival T/C
Assay: NCI In Vivo Anticancer Drug Screen. Data for tumor model L1210 Leukemia (intraperitoneal) in B6D2F1 (BDF1) mice
Conditions: endpoint: mean survival time, higher = longer survival
Procedure, shortened: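 In this screen, tumor-bearing mice given compound are compared to those given vehicle, and their survival values are reported as a treated-to-control quotient.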

[1] = dose: 100.0 mg/kg/injection, schedule: Q01DX001 (ip), vehicle: carboxymethylcellulose (CMC)
[2] = dose: 100.0 mg/kg/injection, schedule: Q04DX002 (ip), vehicle: Klucel (hydroxypropylcellulose) (HPC)
[3] = dose: 200.0 mg/kg/injection, schedule: Q01DX001 (ip), vehicle: carboxymethylcellulose (CMC)
[4] = dose: 200.0 mg/kg/injection, schedule: Q04DX002 (ip), vehicle: Klucel (hydroxypropylcellulose) (HPC)
[5] = dose: 400.0 mg/kg/injection, schedule: Q01DX001 (ip), vehicle: carboxymethylcellulose (CMC)
[6] = dose: 400.0 mg/kg/injection, schedule: Q04DX002 (ip), vehicle: Klucel (hydroxypropylcellulose) (HPC)
[7] = dose: 100.0 mg/kg/injection, schedule: Q01DX001 (ip), vehicle: saline with Tween-80
[8] = dose: 200.0 mg/kg/injection, schedule: Q01DX001 (ip), vehicle: saline with Tween-80
[9] = dose: 400.0 mg/kg/injection, schedule: Q01DX001 (ip), vehicle: saline with Tween-80
[10] = dose: 100.0 mg/kg/injection, schedule: Q04DX002 (ip), vehicle: saline
[11] = dose: 200.0 mg/kg/injection, schedule: Q04DX002 (ip), vehicle: saline
[12] = dose: 400.0 mg/kg/injection, schedule: Q04DX002 (ip), vehicle: saline
[13] = dose: 100.0 mg/kg/injection, schedule: Q04DX003 (ip), vehicle: saline with Tween-80
[14] = dose: 200.0 mg/kg/injection, schedule: Q04DX003 (ip), vehicle: saline with Tween-80
[15] = dose: 400.0 mg/kg/injection, schedule: Q04DX003 (ip), vehicle: saline with Tween-80
[16] = dose: 50.0 mg/kg/injection, schedule: Q01DX009 (ip), vehicle: saline with Tween-80
[17] = dose: 100.0 mg/kg/injection, schedule: Q01DX009 (ip), vehicle: saline with Tween-80
[18] = dose: 200.0 mg/kg/injection, schedule: Q01DX009 (ip), vehicle: saline with Tween-80
[19] = dose: 25.0 mg/kg/injection, schedule: Q01DX009 (ip), vehicle: Klucel (hydroxypropylcellulose) (HPC)
[20] = dose: 50.0 mg/kg/injection, schedule: Q01DX009 (ip), vehicle: Klucel (hydroxypropylcellulose) (HPC)
[21] = dose: 100.0 mg/kg/injection, schedule: Q04DX003 (ip), vehicle: saline
[22] = dose: 100.0 mg/kg/injection, schedule: Q01DX009 (ip), vehicle: Klucel (hydroxypropylcellulose) (HPC)
[23] = dose: 200.0 mg/kg/injection, schedule: Q01DX009 (ip), vehicle: Klucel (hydroxypropylcellulose) (HPC)
[24] = dose: 400.0 mg/kg/injection, schedule: Q01DX009 (ip), vehicle: Klucel (hydroxypropylcellulose) (HPC)
[25] = dose: 100.0 mg/kg/injection, schedule: Q01DX009 (ip), vehicle: saline
[26] = dose: 200.0 mg/kg/injection, schedule: Q01DX009 (ip), vehicle: saline
[27] = dose: 50.0 mg/kg/injection, schedule: Q04DX003 (ip), vehicle: Klucel (hydroxypropylcellulose) (HPC)
[28] = dose: 100.0 mg/kg/injection, schedule: Q04DX003 (ip), vehicle: Klucel (hydroxypropylcellulose) (HPC)

Measured: T/C

Cc1cc(Cl)ccc1OC(=O)Nc1ccc(Cl)cc1
inactive: [1] 103 % of control | dose: 100.0 mg/kg/injection, schedule: Q01DX009 (ip), vehicle: carboxymethylcellulose (CMC) 95 % of control and 101 % of control | [2] 98 % of control | dose: 100.0 mg/kg/injection, schedule: Q04DX002 (ip), vehicle: carboxymethylcellulose (CMC) 96 % of control and 90 % of control | [3] 111 % of control | dose: 200.0 mg/kg/injection, schedule: Q01DX009 (ip), vehicle: carboxymethylcellulose (CMC) 97 % of control and 111 % of control | [4] 92 % of control | dose: 200.0 mg/kg/injection, schedule: Q04DX002 (ip), vehicle: carboxymethylcellulose (CMC) 94 % of control and 97 % of control | [5] 98 % of control | dose: 400.0 mg/kg/injection, schedule: Q01DX009 (ip), vehicle: carboxymethylcellulose (CMC) 97 % of control and 86 % of control | [6] 106 % of control | dose: 400.0 mg/kg/injection, schedule: Q04DX002 (ip), vehicle: carboxymethylcellulose (CMC) 94 % of control and 90 % of control

Cc1ncc(COCc2ccccc2)c(CO)c1OCc1ccccc1
inactive: [1] 92 % of control | [3] 94 % of control | [5] 94 % of control

CCCCCCCCCCP(=O)(CCCCCCCCCC)C(O)C(Cl)(Cl)Cl (configuration not stated)
inactive: [7] 91 % of control | [8] 93 % of control | [9] 94 % of control

CC(C)(N)CBr
inactive: [10] 100 % of control | [11] 113 % of control | [12] 95 % of control

O=C1OC(OC(=O)c2ccccc2)C(Nc2ccccc2)=C1Br (configuration not stated)
inactive: [13] 91 % of control | [14] 87 % of control | [15] 94 % of control

CCCCN(CCCC)CP(=O)(CN(CCCC)CCCC)CN(CCCC)CCCC
inactive: [13] 93 % of control | [14] 96 % of control | [15] 111 % of control

Cc1ccc(NC(=O)NCCOc2ccc(Br)cc2)c([N+](=O)[O-])c1
inactive: [16] 98 % of control | [17] 95 % of control | [13] 92 % of control | [18] 95 % of control | [14] 91 % of control | [15] 100 % of control

c1ccc(-c2cc(-c3ccccc3)c3c([o+]2)CCCCCCCCCCCC3)cc1
inactive: [16] 108 % of control | [17] 108 % of control | [18] 97 % of control

CCC/C(=N\NC(=O)c1ccc(OC)cc1)c1ccccc1
inactive: [16] 94 % of control | [17] 102 % of control | [18] 94 % of control

COc1ccc(OC)c(CCCl)c1
inactive: dose: 100.0 mg/kg/injection, schedule: Q01DX001 (ip), vehicle: acetone 91 % of control | dose: 200.0 mg/kg/injection, schedule: Q01DX001 (ip), vehicle: acetone 93 % of control | dose: 400.0 mg/kg/injection, schedule: Q01DX001 (ip), vehicle: acetone 88 % of control

CCCCN(CCCC)CCCOc1cc(C)ccc1C(C)C
inactive: dose: 3.0 mg/kg/injection, schedule: Q04DX003 (ip), vehicle: saline 97 % of control | dose: 6.0 mg/kg/injection, schedule: Q04DX003 (ip), vehicle: saline 105 % of control and 106 % of control | dose: 12.0 mg/kg/injection, schedule: Q01DX009 (ip), vehicle: Klucel (hydroxypropylcellulose) (HPC) 102 % of control | dose: 12.0 mg/kg/injection, schedule: Q04DX003 (ip), vehicle: saline 95 % of control and 107 % of control | [19] 93 % of control | dose: 25.0 mg/kg/injection, schedule: Q04DX003 (ip), vehicle: saline 97 % of control and 98 % of control and 105 % of control | [20] 109 % of control | [21] 109 % of control

NS(=O)(=O)c1ccc(N=Cc2ccc3c(c2)OCO3)cc1
inactive: [22] 94 % of control | [23] 92 % of control | [24] 97 % of control

CCC[CH2][Sn]([CH2]CCC)([CH2]CCC)[CH2]CC(N)=O
inactive: dose: 50.0 mg/kg/injection, schedule: Q01DX009 (ip), vehicle: saline 96 % of control and 106 % of control | [25] 96 % of control and 106 % of control | [26] 101 % of control

CC(=O)c1cccc(NC(=O)c2ccco2)c1
inactive: [20] 96 % of control | [22] 93 % of control | [23] 93 % of control

CC(=O)[O][Hg][CH]1CCC2OC1CC[CH]2[Hg][O]C(C)=O (configuration not stated)
inactive: dose: 12.5 mg/kg/injection, schedule: Q01DX009 (ip), vehicle: Klucel (hydroxypropylcellulose) (HPC) 97 % of control | [19] 94 % of control | dose: 25.0 mg/kg/injection, schedule: Q04DX003 (ip), vehicle: Klucel (hydroxypropylcellulose) (HPC) 91 % of control | [20] 96 % of control | [27] 98 % of control

CCOC(=O)C(N)C(C)(C)S (configuration not stated)
inactive: [25] 94 % of control | [21] 96 % of control | [26] 103 % of control | dose: 200.0 mg/kg/injection, schedule: Q04DX003 (ip), vehicle: saline 102 % of control | dose: 400.0 mg/kg/injection, schedule: Q01DX009 (ip), vehicle: saline 100 % of control | dose: 400.0 mg/kg/injection, schedule: Q04DX003 (ip), vehicle: saline 103 % of control

Cc1ccc(NC(=O)Nc2cccc(Cl)c2)c(C)c1
inactive: [22] 86 % of control | [23] 94 % of control | [24] 87 % of control

O=C(/C=C/c1ccccc1Cl)c1ccccc1
inactive: [20] 99 % of control | [22] 92 % of control | [23] 96 % of control

CCSc1ncc(C(N)=O)c(N)n1
inactive: [28] 97 % of control | dose: 200.0 mg/kg/injection, schedule: Q04DX003 (ip), vehicle: Klucel (hydroxypropylcellulose) (HPC) 100 % of control | dose: 400.0 mg/kg/injection, schedule: Q04DX003 (ip), vehicle: Klucel (hydroxypropylcellulose) (HPC) 92 % of control

O=C(NC1CCCC1O)c1ccccc1 (configuration not stated)
inactive: [16] 95 % of control | [17] 95 % of control | [18] 98 % of control

CC[Si](CC)(CC)O[Si](CC)(CC)CC
inactive: [10] 102 % of control | [11] 94 % of control | [12] 97 % of control

NC1C(O)C(N)C(O)C(O)C1O (configuration not stated)
inactive: dose: 100.0 mg/kg/injection, schedule: Q04DX003 (ip), vehicle: saline sonified 97 % of control | dose: 200.0 mg/kg/injection, schedule: Q04DX003 (ip), vehicle: saline sonified 97 % of control | dose: 400.0 mg/kg/injection, schedule: Q04DX003 (ip), vehicle: saline sonified 95 % of control

NC(=S)NNC1CCCCC1
inactive: dose: 22.0 mg/kg/injection, schedule: Q01DX Z (ip), vehicle: methylcellulose (MC) 94 % of control | dose: 33.0 mg/kg/injection, schedule: Q01DX Z (ip), vehicle: methylcellulose (MC) 117 % of control | dose: 50.0 mg/kg/injection, schedule: Q01DX Z (ip), vehicle: methylcellulose (MC) 93 % of control

BrCc1ccc(CBr)c(Br)c1
inactive: [19] 108 % of control | [20] 98 % of control | [27] 104 % of control | [28] 95 % of control

CN(CCNC(=O)c1ccccc1C(=O)O)c1ccccc1
inactive: dose: 100.0 mg/kg/injection, schedule: Q04DX002 (ip), vehicle: saline with Tween-80 100 % of control | dose: 200.0 mg/kg/injection, schedule: Q04DX002 (ip), vehicle: saline with Tween-80 95 % of control

c1ccc(C2=C(c3ccccc3)C(c3ccccc3)=C(c3ccccc3)CC2)cc1
inactive: [7] 89 % of control | [8] 89 % of control | [9] 86 % of control

NC(=Nc1ccccc1)SCc1ccc([N+](=O)[O-])cc1
inactive: [20] 108 % of control | dose: 100.0 mg/kg/injection, schedule: Q01DX005 (ip), vehicle: Klucel (hydroxypropylcellulose) (HPC) 97 % of control | [22] 104 % of control | [2] 104 % of control | dose: 200.0 mg/kg/injection, schedule: Q01DX005 (ip), vehicle: Klucel (hydroxypropylcellulose) (HPC) 92 % of control | [4] 112 % of control | [6] 89 % of control

Reference: PubChem BioAssay AID248 (DTP/NCI, 2004)
